Assay [1] deals with Fasciola hepatica. In words: Reduction of worm burden in Fasciola hepatica infected Wistar rat at 800 mg/kg, po relative to control. It is filed as functional. Set-up: scale not given: the % may be the effect or the level left.
Assay [2] concerns Schistosoma mansoni. As to the kind of experiment: Reduction of total worm burden in Schistosoma mansoni Liberian infection NMRI mouse at 800 mg/kg, po relative to control. It is filed as functional. Set-up: scale not given: the % may be the effect or the level left.
Assay [3] can be described thus: Reduction of worm burden in Opisthorchis viverrini infected Syrian Gold hamster at 200 mg/kg, po relative to control. It is filed as functional. The arrangement: scale not given: the % may be the effect or the level left.
Assay [4] has as its system Fasciola hepatica. As to the kind of experiment: Effect on Fasciola hepatica infected Wistar rat assessed as infection cured rats at 800 mg/kg, po relative to control. It is filed as functional, organism-based. The arrangement: dose 800 mg/kg.
A short description of assay [5]: Reduction of worm burden in Opisthorchis viverrini infected Syrian Gold hamster at 400 mg/kg, po relative to control. It is filed as functional. The arrangement: scale not given: the % may be the effect or the level left.
Assay [6] is described as follows: Reduction of worm burden in Clonorchis sinensis infected Wistar rat at 75 mg/kg, po relative to control. It is filed as functional. The arrangement: scale not given: the % may be the effect or the level left.
Assay [7] in a line: Reduction of worm burden in Clonorchis sinensis infected Wistar rat at 150 mg/kg, po relative to control. It is filed as functional. Set-up: scale not given: the % may be the effect or the level left.
Assay [8] relates to Schistosoma mansoni. As to the kind of experiment: Reduction of female worm burden in Schistosoma mansoni Liberian infected NMRI mouse at 800 mg/kg, po relative to control. It is filed as functional. The arrangement: scale not given: the % may be the effect or the level left.
The subject of assay [9] is Schistosoma mansoni. In words: Effect on Schistosoma mansoni Liberian infected NMRI mouse assessed as infection cured mice at 400 mg/kg, po relative to control.

Molecules are shown by their SMILES. Active and inactive are the calls of the source. No cut-off for these calls is given here.

From ChEMBL document CHEMBL1142081, “Evaluation of the in vivo activity of tribendimidine against Schistosoma mansoni, Fasciola hepatica, Clonorchis sinensis, and Opisthorchis viverrini” (2007) come the findings set out here.

`C/C(=N/c1ccc(/N=C/c2ccc(/C=N/c3ccc(/N=C(/C)N(C)C)cc3)cc2)cc1)N(C)C` [TRIBENDIMIDINE]: the Activity in the assay with Fasciola hepatica [1] was determined as 0%; in the assay on Schistosoma mansoni [2] it was 0%; in assay [3], 61.4%; in [5], 95.7%; in assay [6] it was 68.9%; in assay [7], 99.1%. This compound also showed an Activity with Schistosoma mansoni [8] of 0%. Further, the result in the assay with Fasciola hepatica [4] and in the assay on Schistosoma mansoni [9] was Active.
